Laboratory results from ChEMBL document CHEMBL3779843, “Discovery of a Potent Class I Protein Arginine Methyltransferase Fragment Inhibitor” (J Med Chem, 2016).
Active and inactive are the calls of the source. The calls are words filed in the database; no cut-off is given here.

Experiments:
[1] = molecular target: T1, Protein arginine N-methyltransferase 7 (Homo sapiens, UniProt Q9NVM4); test: Inhibition of human PRMT7 using 24 residues of biotin labelled histone4 substrate and tritiated 3H-S-adenosylmethionine by scintillation proximity assay
T1 sequence (Q9NVM4 whole entry): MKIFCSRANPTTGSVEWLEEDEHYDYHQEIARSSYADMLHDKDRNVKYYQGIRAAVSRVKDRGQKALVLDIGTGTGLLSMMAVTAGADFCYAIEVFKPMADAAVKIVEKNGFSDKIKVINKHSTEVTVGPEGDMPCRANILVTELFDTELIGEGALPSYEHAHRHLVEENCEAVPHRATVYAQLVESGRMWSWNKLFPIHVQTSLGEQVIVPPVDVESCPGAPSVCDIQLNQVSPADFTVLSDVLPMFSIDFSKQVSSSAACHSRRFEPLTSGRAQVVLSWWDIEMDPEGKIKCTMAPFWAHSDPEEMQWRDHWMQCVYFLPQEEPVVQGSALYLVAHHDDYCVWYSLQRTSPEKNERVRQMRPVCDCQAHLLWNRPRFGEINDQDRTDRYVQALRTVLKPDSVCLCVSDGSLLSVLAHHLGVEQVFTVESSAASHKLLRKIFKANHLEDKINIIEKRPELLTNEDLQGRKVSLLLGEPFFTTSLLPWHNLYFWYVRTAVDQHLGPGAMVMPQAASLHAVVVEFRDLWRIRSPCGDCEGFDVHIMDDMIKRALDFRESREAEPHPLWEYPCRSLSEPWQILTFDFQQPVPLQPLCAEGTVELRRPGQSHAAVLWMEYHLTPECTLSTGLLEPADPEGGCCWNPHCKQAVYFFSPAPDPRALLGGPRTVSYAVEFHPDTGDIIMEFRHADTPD

[2] = molecular target: Protein arginine N-methyltransferase 5 (Homo sapiens, UniProt O14744); test: Inhibition of human PRMT5 using 24 residues of biotin labelled histone4 substrate and tritiated 3H-S-adenosylmethionine by scintillation proximity assay
[3] = molecular target: T2, Histone-arginine methyltransferase CARM1 (Homo sapiens, UniProt Q86X55); test: (§1) Inhibition of CARM1 (unknown origin) using 24 residues of biotin labelled histone4 substrate and tritiated 3H-S-adenosylmethionine by scintillation proximity assay
T2 sequence (Q86X55 whole entry): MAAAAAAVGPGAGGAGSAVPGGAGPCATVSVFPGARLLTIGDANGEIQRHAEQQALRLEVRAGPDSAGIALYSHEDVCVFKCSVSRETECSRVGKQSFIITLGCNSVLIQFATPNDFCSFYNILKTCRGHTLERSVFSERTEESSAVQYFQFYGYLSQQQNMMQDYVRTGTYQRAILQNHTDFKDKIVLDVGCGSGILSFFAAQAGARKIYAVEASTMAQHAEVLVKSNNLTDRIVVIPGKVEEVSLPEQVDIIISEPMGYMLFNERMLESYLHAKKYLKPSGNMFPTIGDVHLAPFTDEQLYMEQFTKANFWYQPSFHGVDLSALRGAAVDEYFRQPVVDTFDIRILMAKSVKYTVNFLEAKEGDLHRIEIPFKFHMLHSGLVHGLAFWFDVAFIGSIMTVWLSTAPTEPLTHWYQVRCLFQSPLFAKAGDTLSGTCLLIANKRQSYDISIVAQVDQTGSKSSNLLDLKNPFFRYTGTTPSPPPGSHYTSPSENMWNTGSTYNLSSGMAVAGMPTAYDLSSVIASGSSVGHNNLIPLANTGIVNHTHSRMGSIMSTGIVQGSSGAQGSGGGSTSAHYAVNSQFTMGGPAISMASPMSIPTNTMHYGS

[4] = molecular target: Protein arginine N-methyltransferase 8 (Homo sapiens, UniProt Q9NR22); test: Inhibition of human PRMT8 using 24 residues of biotin labelled histone4 substrate and tritiated 3H-S-adenosylmethionine by scintillation proximity assay
[5] = molecular target: Protein arginine N-methyltransferase 3 (Homo sapiens, UniProt O60678); test: Inhibition of human PRMT3 using 24 residues of biotin labelled histone4 substrate and tritiated 3H-S-adenosylmethionine by scintillation proximity assay
[6] = molecular target: T3, Protein arginine N-methyltransferase 6 (Homo sapiens, UniProt Q96LA8); test: Inhibition of N-terminal hexa-His tagged human PRMT6 expressed in Sf9 cells using 24 residues of biotin labelled histone4 substrate and tritiated 3H-S-adenosylmethionine by scintillation proximity assay
[7] = molecular target: T2, Histone-arginine methyltransferase CARM1; test: Inhibition of human PRMT4 using 24 residues of biotin labelled histone4 substrate and tritiated 3H-S-adenosylmethionine by scintillation proximity assay
[8] = molecular target: T4, Histone-arginine methyltransferase CARM1 (Homo sapiens) (UniProt Q86X55); test: as §1
T4 sequence (whole entry): T2 sequence (Q86X55 whole entry)

[9] = molecular target: Protein arginine N-methyltransferase 1 (Homo sapiens, UniProt Q99873); test: Inhibition of human PRMT1 using 24 residues of biotin labelled histone4 substrate and tritiated 3H-S-adenosylmethionine by scintillation proximity assay
[10] = molecular target: T3, Protein arginine N-methyltransferase 6; test: Inhibition of FLAG-tagged human PRMT6 expressed in HEK293 cells assessed as reduction in H3R2 global methylation incubated for 20 hrs by Western blot method; type: cell-based
[11] = molecular target: T3, Protein arginine N-methyltransferase 6; test: Binding affinity to Inhibition of N-terminal hexa-His tagged human PRMT6 expressed in Sf9 cells by ITC method
[12] = molecular target: Protein arginine N-methyltransferase 6 (Homo sapiens, UniProt Q96LA8, L267E); test: Inhibition of PRMT6 L267E mutant (unknown origin) using 24 residues of biotin labelled histone4 substrate and tritiated 3H-S-adenosylmethionine by scintillation proximity assay
[13] = molecular target: T2, Histone-arginine methyltransferase CARM1; test: Inhibition of GST-tagged CARM1 (unknown origin) using tritiated S-adenosylmethionine as substrate at 6 nM by methylation- based filter assay

T3 sequence (Q96LA8 whole entry): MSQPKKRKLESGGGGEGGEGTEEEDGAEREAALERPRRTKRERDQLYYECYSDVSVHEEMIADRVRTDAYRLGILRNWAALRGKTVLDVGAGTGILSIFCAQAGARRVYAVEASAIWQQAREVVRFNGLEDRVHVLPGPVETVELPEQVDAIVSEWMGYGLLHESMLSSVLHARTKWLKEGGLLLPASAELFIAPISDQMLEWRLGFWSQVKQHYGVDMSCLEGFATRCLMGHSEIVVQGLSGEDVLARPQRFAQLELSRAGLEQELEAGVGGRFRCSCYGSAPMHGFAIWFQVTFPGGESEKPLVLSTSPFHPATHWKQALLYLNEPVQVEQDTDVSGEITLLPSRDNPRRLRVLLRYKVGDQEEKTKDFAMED
Chain of Protein arginine N-methyltransferase 8 (Q9NR22 whole entry): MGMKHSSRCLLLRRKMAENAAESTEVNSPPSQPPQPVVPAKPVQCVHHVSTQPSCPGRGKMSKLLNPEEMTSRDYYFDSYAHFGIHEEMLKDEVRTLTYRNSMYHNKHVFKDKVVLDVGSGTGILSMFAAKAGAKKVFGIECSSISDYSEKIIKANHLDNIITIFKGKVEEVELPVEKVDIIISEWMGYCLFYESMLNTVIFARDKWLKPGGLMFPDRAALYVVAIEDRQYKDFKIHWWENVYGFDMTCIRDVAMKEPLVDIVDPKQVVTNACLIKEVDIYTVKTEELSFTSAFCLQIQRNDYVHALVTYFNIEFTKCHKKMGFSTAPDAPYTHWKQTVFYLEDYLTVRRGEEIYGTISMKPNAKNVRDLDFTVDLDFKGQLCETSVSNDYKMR
Chain of Protein arginine N-methyltransferase 5 (O14744 whole entry): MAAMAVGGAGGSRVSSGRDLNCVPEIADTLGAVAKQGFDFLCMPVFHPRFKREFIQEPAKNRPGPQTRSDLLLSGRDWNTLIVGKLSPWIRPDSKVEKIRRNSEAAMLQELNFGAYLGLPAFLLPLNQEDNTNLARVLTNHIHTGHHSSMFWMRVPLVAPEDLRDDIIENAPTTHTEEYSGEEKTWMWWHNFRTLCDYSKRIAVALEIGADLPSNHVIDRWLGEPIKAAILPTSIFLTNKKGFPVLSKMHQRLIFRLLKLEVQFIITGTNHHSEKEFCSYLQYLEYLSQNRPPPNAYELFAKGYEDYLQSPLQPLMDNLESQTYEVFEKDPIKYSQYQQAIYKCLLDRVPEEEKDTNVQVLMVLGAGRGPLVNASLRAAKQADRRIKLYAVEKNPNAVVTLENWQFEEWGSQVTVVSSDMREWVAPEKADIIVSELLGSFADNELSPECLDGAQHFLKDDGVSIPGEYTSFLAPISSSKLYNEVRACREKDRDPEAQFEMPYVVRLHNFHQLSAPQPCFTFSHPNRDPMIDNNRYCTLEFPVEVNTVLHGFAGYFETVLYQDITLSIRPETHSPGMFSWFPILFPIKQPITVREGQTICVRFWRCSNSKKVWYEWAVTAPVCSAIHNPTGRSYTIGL
Chain of Protein arginine N-methyltransferase 3 (O60678 whole entry): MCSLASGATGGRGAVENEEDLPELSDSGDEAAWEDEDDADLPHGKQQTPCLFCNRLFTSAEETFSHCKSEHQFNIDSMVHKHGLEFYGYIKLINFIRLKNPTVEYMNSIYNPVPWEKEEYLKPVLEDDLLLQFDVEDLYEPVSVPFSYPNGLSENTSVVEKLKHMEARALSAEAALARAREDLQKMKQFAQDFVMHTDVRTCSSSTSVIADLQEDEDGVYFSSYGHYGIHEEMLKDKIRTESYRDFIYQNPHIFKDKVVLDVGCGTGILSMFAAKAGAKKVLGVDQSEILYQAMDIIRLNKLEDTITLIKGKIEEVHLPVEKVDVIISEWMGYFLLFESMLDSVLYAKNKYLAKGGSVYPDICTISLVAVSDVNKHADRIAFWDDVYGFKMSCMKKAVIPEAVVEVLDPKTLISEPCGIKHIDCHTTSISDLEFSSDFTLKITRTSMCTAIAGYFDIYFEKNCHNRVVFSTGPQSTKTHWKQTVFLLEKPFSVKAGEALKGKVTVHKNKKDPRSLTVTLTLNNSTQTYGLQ
Chain of Protein arginine N-methyltransferase 1 (Q99873 whole entry): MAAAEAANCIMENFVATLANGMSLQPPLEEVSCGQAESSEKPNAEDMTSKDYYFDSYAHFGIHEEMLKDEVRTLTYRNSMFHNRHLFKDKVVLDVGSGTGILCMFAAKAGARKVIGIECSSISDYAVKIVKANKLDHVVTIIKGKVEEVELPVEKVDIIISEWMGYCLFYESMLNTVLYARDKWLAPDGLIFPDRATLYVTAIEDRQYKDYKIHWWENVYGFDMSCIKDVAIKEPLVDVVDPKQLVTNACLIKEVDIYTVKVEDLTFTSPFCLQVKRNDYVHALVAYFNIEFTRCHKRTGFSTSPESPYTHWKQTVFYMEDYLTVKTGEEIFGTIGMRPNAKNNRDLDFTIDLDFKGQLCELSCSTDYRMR
Chain of Protein arginine N-methyltransferase 6 (Homo sapiens, UniProt Q96LA8, L267E) (Q96LA8 whole entry L267E): as the sequence (Q96LA8 whole entry) above, with L267E counted along it

`CNCCN(C)C` was tested, and the IC50 [1] was “Not Active”, the IC50 [2] was “Not Active” and the IC50 [3] was 3 µM. For the same compound, the IC50 [4] was 7 µM, the IC50 [5] was 35 µM and the IC50 [6] was 5 µM. It also gave an IC50 [7] of 3 µM.

`CNCc1cccc(-c2ccco2)c1` was tested, and the IC50 [6] was 146 µM.

For `CNCCN1CCC(c2ccc3[nH]c(-c4ccccc4OC)c(Cl)c3c2)CC1`, the inhibition [8] was “Active”.

In the case of `CCNC(=O)[C@@H](C)N`, the IC50 [9] is reported as over 1000 µM, the IC50 [1] is reported as “Not Active” and the IC50 [2] is reported as “Not Active”. The IC50 [3] was 105 µM, the IC50 [4] was over 200 µM and the IC50 [5] was over 1000 µM. It also gave an IC50 [6] of over 200 µM and an IC50 [7] of 105 µM.

`Nc1ccc(S(=O)(=O)Nc2nccs2)cc1` [SULFATHIAZOLE] was tested, and the IC50 [6] was 430 µM.

In the case of `CNCc1cccc(-c2cccnc2)c1`, the IC50 [6] is reported as 104 µM.

`NCCN1CCC(Cc2ccccc2)CC1` was tested, and the IC50 [1] was “Not Active”, the IC50 [2] was “Not Active” and the IC50 [3] was 1 µM. It also gave an IC50 [4] of 2.1 µM, an IC50 [5] of 19 µM and an IC50 [10] of 21 µM. It also gave a Kd [11] of 0.97 µM, an IC50 [6] of 0.23 µM and an IC50 [7] of 1 µM. For the same compound, the IC50 [12] was 0.39 µM.

`CNCCN1CCC(C)CC1` was tested, and the IC50 [9] was 48 µM, the IC50 [1] was “Not Active” and the IC50 [2] was “Not Active”. For the same compound, the IC50 [3] was 0.2 µM, the IC50 [4] was 15 µM and the IC50 [5] was over 500 µM. It also gave an IC50 [7] of 0.2 µM.

With `C[C@@H](N)C(=O)NCc1cccc(-n2nc(C(F)(F)F)cc2-c2nnc(-c3cccc4[nH]ccc34)o2)c1` the IC50 [13] was 0.027 µM.

With `Cc1nc(N)sc1-n1ccc(C(F)(F)F)n1` the IC50 [6] was 46 µM.
